In US11597703B2, “Caspase inhibitors and methods of use thereof” (Histogen Inc., priority 2019, dated 2023):

Key:
Caspase 6 = target: T1, Caspase 6 (Homo sapiens, UniProt P55212); test: Caspase 6 enzymatic inhibition assay, IC50; type: biochemical; conditions: read-out: Caspase 6 enzyme inhibition IC50
T1 construct: purchased Enzo Biosciences
T1 sequence (P55212 24-179 limits assumed): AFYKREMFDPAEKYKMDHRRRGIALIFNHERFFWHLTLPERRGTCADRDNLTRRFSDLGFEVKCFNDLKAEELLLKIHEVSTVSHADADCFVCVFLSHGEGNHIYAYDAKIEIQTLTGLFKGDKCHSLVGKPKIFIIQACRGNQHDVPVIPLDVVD
T1 sequence (P55212 194-293 limits assumed): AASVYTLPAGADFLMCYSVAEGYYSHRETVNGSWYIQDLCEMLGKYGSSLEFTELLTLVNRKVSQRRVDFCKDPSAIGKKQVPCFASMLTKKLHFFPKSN
Procedure, shortened: (§1)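 Recombinant human caspase-3, -6 and -7 enzymes were assayed following the supplier's kit protocol, and compound inhibition of each enzyme's activity was expressed as an IC50.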

IL-1β = test: Inhibition of LPS-stimulated IL-1β in THP-1 cells (ELISA); type: cell-based, human; conditions: Homo sapiens, 10 micromolar, read-out: Percent Inhibition of IL1-β
Experimental: Compounds in the present invention were tested in THP-1 cells, a human monocyte cell line, to assess the inhibition of the inflammatory cytokine IL-1β. THP-1 cells (ATCC TIB-202) were grown in culture and seeded in 96 well plates at a concentration of 200,000 cells per well with a total volume of 150 μL. Plated cells were incubated overnight at 37 degrees C. under an atmosphere of 5% CO2. Media was removed from cells which were washed with PBS. Test compounds were diluted in DMSO stock solution and serially diluted appropriately for initial screening and IC50 determinations. LPS in serum free media (140 μL of […]) was added to each well to stimulate IL-1β production. IL-1β was measured by ELISA assay kit (R&D Systems) per the manufacturers instructions.
IC50 values for the inhibition of IL-1 in THP 1 cells were determined from dose response studies.

Jurkat cells = test: Prevention of Fas-induced apoptosis in Jurkat cells (WST-8); type: cell-based; conditions: Homo sapiens, 10 micromolar, read-out: % Prevention of Fas - induced Jurkat cell apoptosis at 10 micromolar
Experimental: Compounds of the present invention were evaluated in Jurkat cells, a human T-lymphocyte cell line, to evaluate compounds ability to inhibit apoptotic cell death. Jurkat cells, Clone E6-1 (ATCC TIB-152) were grown in culture maintain a cell density between 0.5-2 million cells/mL. Cells were tested for viability and countion with typan blue stain before use. Test compounds were addedd to 96 well plates and Jurkat cells were added at a concentration of approximately 100,000 cells per well and mixed thoroughly by action of pipetting. Plated cells were incubated for 1 hour at 37 degrees C. under an atmosphere of 5% CO2. Anti-Fas antibody was added and mixed by pipet action. Plates were incubated for 20 hours at 37 degrees C. under an atmosphere of 5% CO2. 10 microliters of thawed WST-8 solution was added to each well and incubated for 4 hours. Absorbance was measured at 450 nm and control reading at […] using a SpectraMax ID5 plate reader. Apoptotic cell death is executed by caspases 3, 7 and 6. Compounds that lack activity against these caspases will not prevent the death of Jurkat cells and is a functional test of selectivity for inflammatory over apoptotic caspases.
IC50 values to protect against Fas induced apoptosis and improve survival of Jurkat cells were determined from dose response studies.

Caspase 7 = target: T2, Caspase 7 (Homo sapiens, UniProt P55210); test: Caspase 7 enzymatic inhibition assay, IC50; type: biochemical; conditions: read-out: Caspase 7 enzyme inhibition IC50
T2 construct: purchased Enzo Biosciences
T2 sequence (P55210 24-198 limits assumed): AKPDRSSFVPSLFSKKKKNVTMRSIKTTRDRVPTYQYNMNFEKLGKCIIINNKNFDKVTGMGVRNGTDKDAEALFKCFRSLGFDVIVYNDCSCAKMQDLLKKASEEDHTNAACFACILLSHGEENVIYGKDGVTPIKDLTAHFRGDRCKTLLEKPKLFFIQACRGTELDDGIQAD
T2 sequence (P55210 207-303 limits assumed): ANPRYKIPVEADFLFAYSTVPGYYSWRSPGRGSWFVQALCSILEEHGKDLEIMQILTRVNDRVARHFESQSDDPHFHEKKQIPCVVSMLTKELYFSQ
Procedure, shortened: as §1

Caspase-1 = target: T3, Caspase-1 (Homo sapiens, UniProt P29466); test: Caspase-1 enzyme inhibition assay (Ac-YVAD-pNA substrate), IC50; type: biochemical
T3 construct: purchased Enzo Biosciences
T3 sequence (P29466 120-297 limits assumed): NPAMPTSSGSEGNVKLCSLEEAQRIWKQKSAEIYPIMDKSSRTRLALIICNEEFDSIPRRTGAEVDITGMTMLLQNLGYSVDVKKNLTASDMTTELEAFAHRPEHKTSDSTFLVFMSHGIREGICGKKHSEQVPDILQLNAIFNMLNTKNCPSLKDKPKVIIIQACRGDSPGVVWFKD
T3 sequence (P29466 317-404 limits assumed): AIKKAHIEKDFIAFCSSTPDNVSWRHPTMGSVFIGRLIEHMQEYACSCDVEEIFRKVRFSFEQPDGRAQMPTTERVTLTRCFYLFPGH
Procedure, shortened: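 Buffer was 50 mM HEPES pH 7.4, 100 mM NaCl, 0.1% CHAPS, 1 mM EDTA, 10% glycerol and 10 mM DTT. Caspase-1 was reacted with 200 μM Ac-YVAD-pNA (final). Release of p-nitroaniline was followed continuously at 405 nm, and rates were taken from the linear slope (ε 10,500 M-1 cm-1).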

Caspase-3 = target: T4, Caspase-3 (Homo sapiens, UniProt P42574); test: Caspase-3 enzymatic inhibition assay, IC50; type: biochemical; conditions: read-out: Caspase 3 enzyme inhibition IC50
T4 construct: purchased Enzo Biosciences
T4 sequence (P42574 29-175 limits assumed): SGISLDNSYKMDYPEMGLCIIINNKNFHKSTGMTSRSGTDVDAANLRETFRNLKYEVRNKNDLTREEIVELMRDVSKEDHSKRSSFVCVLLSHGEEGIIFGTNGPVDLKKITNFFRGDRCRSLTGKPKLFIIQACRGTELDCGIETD
T4 sequence (P42574 176-277 limits assumed): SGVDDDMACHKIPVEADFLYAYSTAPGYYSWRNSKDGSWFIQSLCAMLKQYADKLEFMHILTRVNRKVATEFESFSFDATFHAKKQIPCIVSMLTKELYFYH
Procedure, shortened: as §1

| Structure (SMILES) | IC50 (Caspase 6) | inhibition at 10 µM (IL-1β) | inhibition at 10 µM (Jurkat cells) | IC50 (Caspase 7) | IC50 (Caspase-1) | IC50 (Caspase-3) |
| --- | --- | --- | --- | --- | --- | --- |
| C[C@H](NC(=O)C(=O)Nc1ccc(F)cc1)C(=O)N[C@@H](CCC(=O)O)C(=O)COc1c(F)c(F)cc(F)c1F [Example 17, (S)-4-((S)-2-(2-((4-fluorophenyl)amino)-2-oxoacetamido)propanamido)-5-oxo-6-(2,3,5,6-tetrafluorophenoxy)hexanoic acid] | ≥ 1000 nM | > 90% | ≤ 10% | ≥ 1000 nM | ≤ 10 nM | ≥ 1000 nM |
| C[C@H](NC(=O)C(=O)Nc1cccc(F)c1)C(=O)N[C@@H](CCC(=O)O)C(=O)COc1c(F)c(F)cc(F)c1F [Example 18, (S)-4-((S)-2-(2-((3fluorophenyl)amino)-2-oxoacetamido)propanamido)-5-oxo-6-(2,3,5,6-tetrafluorophenoxy)hexanoic acid] | ≥ 1000 nM | > 90% | ≤ 10% | ≥ 1000 nM | ≤ 10 nM | ≥ 1000 nM |
| Cc1ccc(NC(=O)C(=O)N[C@@H](C)C(=O)N[C@@H](CCC(=O)O)C(=O)COc2c(F)c(F)cc(F)c2F)cc1 [Example 19, (S)-4-((S)-2-(2-((4-methylphenyl)amino)-2-oxoacetamido)propanamido)-5-oxo-6-(2,3,5,6-tetrafluorophenoxy)hexanoic acid] | ≥ 1000 nM | > 90% | ≤ 10% | ≥ 1000 nM | ≤ 10 nM | ≥ 1000 nM |
| Cc1cccc(NC(=O)C(=O)N[C@@H](C)C(=O)N[C@@H](CCC(=O)O)C(=O)COc2c(F)c(F)cc(F)c2F)c1 [Example 20, (S)-4-((S)-2-(2-((3-methylphenyl)amino)-2-oxoacetamido)propanamido)-5-oxo-6-(2,3,5,6-tetrafluorophenoxy)hexanoic acid] | ≥ 1000 nM | > 90% | ≤ 10% | ≥ 1000 nM | ≤ 10 nM | ≥ 1000 nM |
